Experimental data: publication PMC8625559 (Pharmaceutics, 2021)

Tests used:
[1] = Skin-PAMPA membrane integrity study with piroxicam as model permeant; assay type: in vitro ADME; details: piroxicam from aqueous solution; membranes pre-treated 7 h with each of 13 solvents
Experimental: Possible disruption by solvents of the integrity of the biomimetic artificial membrane was investigated. Wells were filled with each solvent and incubated over a longer (minimum 7 h) incubation time than the duration of the tests with the model solutions. The solvents were aspirated from the wells, and the residue from the surface of the membrane was removed gently with cotton paper. A standard skin permeability assay was then performed using piroxicam as the model permeant, for which precise previous data are available. The logPm values were compared with the reference value from untreated plates.

[2] = parameters: method as in PMID 25957747; details: aqueous solution, untreated Skin-PAMPA plates; cited from earlier work
[3] = logP by shake-flask method, octanol/water; assay type: physicochemical; details: 25.0 °C
Experimental: Two parallel experiments were carried out. Four different phase ratios of octanol:water (1:50, 1:75, 1:100, 1:125) were applied. The equilibration time was 1 h (Lauda M2OS, shaking thermostat Königshofen, Germany), and the phases were separated by centrifugation. The concentration decrease in the sample in the aqueous phase was detected by UV spectroscopy (Jasco V-550 UV/VIS spectrophotometer, Easton, MD, USA) measuring the absorbance before and after the partition at λmax = 280 nm. The logP value was calculated from the equation:(1) logP=log[A0−A1/A1(Vaq/Voct)] where A0 and A1 represent the absorbance value at the absorption maximum of the compound in the aqueous phase before and after partition.

[4] = Skin-PAMPA permeability of PER in different solvents; assay type: in vitro ADME
Experimental: Skin PAMPA™ sandwiches and stirring bars (P/N: 110211) were supplied by Pion Inc™. UV plates (UV-star microplate, clear, flat bottom, half area) were from Greiner Bio-one™ (Kremsmünster, Austria). Membranes were hydrated overnight with standard hydration solution (Pion Inc™., product number 120706). […] The acceptor (lower) plate contained 180 μL Prisma buffer pH 7.4 and a magnetic stirrer in each well. The PAMPA™ sandwich was incubated at 32 °C in a Gut-Box™ (from Pion Inc™). Stirring bars were applied in every well to avoid the effect of the unstirred water layer. The acceptor solution was sampled after 7.5, 15, 30, 60, 120, 240 and 360 min incubation. After each individual incubation period, 150 µL from the acceptor compartment was transferred to UV plates. The acceptor phase was replaced with fresh buffer solution.
The flux (J) was obtained as the slope of the permeability profile and expressed in µg/cm^2 × h units. For the linear regression analysis, the linear range of incubation period from 0 to 30 min was selected and used for calculation of flux of the model compound. Permeability coefficient Pm […] was calculated from the equation:Pm= J/CD(2) where CD is the donor phase concentration.

[5] = Penetration kinetics across pig ear skin; assay type: in vitro ADME
Experimental: Before use, hairs were shaved from the pig ear skin using an electric razor, and the skin thickness was adjusted between 700 and 1200 µm. This size range was achieved by cutting the dermis below hair follicle. The integrity of the skin was tested according to the Trans-Epidermal Water Loss (TEWL) method using a Delfin device.
After topical application of the test chemical (infinite dose, 1.13 mL/cm^2), the concentration of the chemical in the receptor fluid was measured by sampling 200 µL of receptor fluid and replacing it with fresh fluid on an hourly basis, up to 16 h.
The kinetic samples were directly injected into an LC/MS-MS system (Shimadzu Nexera LC system, Shimadzu, Kyoto, Japan) coupled with a mass spectrometer API 3500 (Sciex, Framingham, MA, USA). The analytical system was managed by Analyst v.1.6 software (Sciex, Framingham, MA, USA). The analytical column used was a Kinetex C18 from Phenomenex™ (Torrance, CA, USA) (50 × 2.0 mm, dp. 2.6 µm), and analysis was carried out with a gradient elution with mobile phases of 20 mM ammonium acetate (A) and acetonitrile (B). The column temperature was fixed at 50 °C, and the volume of the injection was 10 µL with a flow rate of 0.8 mL/min. The ionisation mode used was electrospray negative.
The calculation was carried out using GraphPad PrismT v.7 (GraphPad Software Inc., San Diego, CA, USA).

[6] = Stability in buffer solutions (LC/MS-MS method validation); assay type: physicochemical; details: spiked at 426 and 21.5 ng/mL
Experimental: The specificity of the analytical method was controlled with blank (NaCl, 9 g/L) solution (Merck, Darmstadt Germany). The limit of quantitation (LoQ) was 2.43 ng/mL. Linearity was determined between the LoQ and 1000 ng/mL, with accuracy below ±15%, except at the LoQ, which was below ± 20%. Accuracy and precision were determined at least at two quality control (QC) theoretical concentrations: low (around 20 ng/mL) and middle (around 300 ng/mL). All QCs remained within the acceptance criteria (accuracy < ±15%). Matrix effects and stability in buffer solutions and buffer supplemented with pig skin were evaluated at two concentrations (426 and 21.5 ng/mL) in triplicate by spiking buffer solutions containing known amounts of chemical. […] A matrix effect was observed; therefore, all calibrations for this chemical were carried out in the matrix.

[7] = parameters: method as in L'Oréal Laboratories; details: AH/A−; ref L'Oréal Laboratories; cited from earlier work
[8] = PER in S2 Ethanol, CD 500 mg/mL
[9] = PER in S4 Dimethylisosorbide, CD 70 mg/mL
[10] = PER in S5 Water/ethanol 80:20 (w/w), CD 10 mg/mL
[11] = PER in S6 Water/dimethylisosorbide 90:10 (w/w), CD 1 mg/mL
[12] = PER in S7 Propylene glycol, CD 500 mg/mL
[13] = PER in S8 Water:propylene glycol 80:20 (w/w), CD 10 mg/mL
[14] = PER in S9 Water/propylenglycol/ethanol 10:30:60 (w/w/w), CD 500 mg/mL
[15] = PER in S10 Capric/caprylic triglycerides, CD 70 mg/mL
[16] = PER in S11 Octyl dodecanol, CD 1 mg/mL
[17] = PER in S12 Apricot kernel oil, CD 1 mg/mL
[18] = PER in S13 Corn oil, CD 1 mg/mL
[19] = PER in S4 Dimethylisosorbide, CD 60 mg/mL
[20] = PER in S5 Water/ethanol 80:20 (w/w), CD 8 mg/mL
[21] = PER in S7 Propylene glycol, CD 350 mg/mL
[22] = PER in S8 Water:propylene glycol 80:20 (w/w), CD 51 mg/mL
[23] = PER in S10 Capric/caprylic triglycerides, CD 75 mg/mL

CN1C(C(=O)Nc2ccccn2)=C(O)c2ccccc2S1(=O)=O [piroxicam]
logPm of piroxicam, mean across solvent-treated membranes [1]: −4.25 ± 0.30
reference logPm of piroxicam [2]: −4.98 ± 0.01

4-phenylethyl-resorcinol [PER]
logP [3]: 2.98 ^1
J (flux) ([4]; PER in S1 Water, CD 1 mg/mL): 72.4 ± 7.8 µg/cm^2 × h
Lag Time ([4]; PER in S1 Water, CD 1 mg/mL): 1.4 min
Permeated Amount (6 h) ([4]; PER in S1 Water, CD 1 mg/mL): 169 ± 4 µg/cm^2
logPm ([4]; PER in S1 Water, CD 1 mg/mL): −1.12 ± 0.06
J (flux) [4, 8]: 12,033 ± 252 µg/cm^2 × h
Lag Time [4, 8]: 0.0 min
Permeated Amount (6 h) [4, 8]: 13,575 ± 1710 µg/cm^2
logPm [4, 8]: −1.62 ± 0.01
J (flux) ([4]; PER in S3 Glycerol, CD 5 mg/mL): 137 ± 22 µg/cm^2 × h
Lag Time ([4]; PER in S3 Glycerol, CD 5 mg/mL): 5.5 min
Permeated Amount (6 h) ([4]; PER in S3 Glycerol, CD 5 mg/mL): 869 ± 112 µg/cm^2
logPm ([4]; PER in S3 Glycerol, CD 5 mg/mL): −1.57 ± 0.07
J (flux) [4, 9]: 209 ± 53 µg/cm^2 × h
Lag Time [4, 9]: 3.6 min
Permeated Amount (6 h) [4, 9]: 1342 ± 298 µg/cm^2
logPm [4, 9]: −2.54 ± 0.13
J (flux) [4, 10]: 589 ± 25 µg/cm^2 × h
Lag Time [4, 10]: 0.9 min
Permeated Amount (6 h) [4, 10]: 1662 ± 169 µg/cm^2
logPm [4, 10]: −1.23 ± 0.03
J (flux) [4, 11]: 76.4 ± 15.2 µg/cm^2 × h
Lag Time [4, 11]: 0.0 min
Permeated Amount (6 h) [4, 11]: 175 ± 22 µg/cm^2
logPm [4, 11]: −1.13 ± 0.07
J (flux) [4, 12]: 2118 ± 502 µg/cm^2 × h
Lag Time [4, 12]: 3.8 min
Permeated Amount (6 h) [4, 12]: 11,142 ± 729 µg/cm^2
logPm [4, 12]: −2.38 ± 0.11
J (flux) [4, 13]: 570 ± 5 µg/cm^2 × h
Lag Time [4, 13]: 1.1 min
Permeated Amount (6 h) [4, 13]: 1772 ± 98 µg/cm^2
logPm [4, 13]: −1.24 ± 0.01
J (flux) [4, 14]: 10,846 ± 326 µg/cm^2 × h
Lag Time [4, 14]: 1.4 min
Permeated Amount (6 h) [4, 14]: 14,926 ± 2431 µg/cm^2
logPm [4, 14]: −1.66 ± 0.01
J (flux) [4, 15]: 377 ± 36 µg/cm^2 × h
Lag Time [4, 15]: 3.0 min
Permeated Amount (6 h) [4, 15]: 749 ± 92 µg/cm^2
J (flux) [4, 16]: 7.18 ± 1.6 µg/cm^2 × h
Lag Time [4, 16]: 3.9 min
Permeated Amount (6 h) [4, 16]: 19 ± 0.4 µg/cm^2
J (flux) [4, 17]: 2.45 ± 0.57 µg/cm^2 × h
Lag Time [4, 17]: 3.3 min
Permeated Amount (6 h) [4, 17]: 13 ± 1.9 µg/cm^2
logPm [4, 17]: −2.63 ± 0.07
J (flux) [4, 18]: 3.26 ± 0.41 µg/cm^2 × h
Lag Time [4, 18]: 1.4 min
Permeated Amount (6 h) [4, 18]: 13 ± 1.3 µg/cm^2
logPm [4, 18]: −2.48 ± 0.06
calculated lag times ([4]; span over all 13 solvents): 0 to 6 min
J (flux) ([5]; PER in S1 Water, CD 1 mg/mL): 25 ± 9.6 µg/cm^2 × h
Permeated Amount (16 h) ([5]; PER in S1 Water, CD 1 mg/mL): 261 ± 100 µg/cm^2
logKp ([5]; PER in S1 Water, CD 1 mg/mL): −1.71 ± 0.32
Permeated Amount (16 h) ([5]; PER in S2 Ethanol, CD […]): 98 ± 67 µg/cm^2
J (flux) [5, 19]: 0.08 ± 0.024 µg/cm^2 × h
logKp [5, 19]: −5.88 ± 0.19
J (flux) [5, 20]: 61 ± 18 µg/cm^2 × h
Permeated Amount (16 h) [5, 20]: 515 ± 203 µg/cm^2
logKp [5, 20]: −1.97 ± 0.34
J (flux) [5, 11]: 7.5 ± 3 µg/cm^2 × h
Permeated Amount (16 h) [5, 11]: 100 ± 37 µg/cm^2
logKp [5, 11]: −2.16 ± 0.26
J (flux) [5, 21]: 20 ± 17.6 µg/cm^2 × h
Permeated Amount (16 h) [5, 21]: 147 ± 120 µg/cm^2
logKp [5, 21]: −4.24 ± 0.81
J (flux) [5, 22]: 98 ± 50 µg/cm^2 × h
Permeated Amount (16 h) [5, 22]: 516 ± 109 µg/cm^2
logKp [5, 22]: −1.72 ± 0.34
Permeated Amount (16 h) ([5]; PER in S9 Water/propylenglycol/ethanol 10:30:60 (w/w/w), CD […]): 320 ± 149 µg/cm^2
J (flux) [5, 23]: 8 ± 3.5 µg/cm^2 × h
Permeated Amount (16 h) [5, 23]: 54 ± 34 µg/cm^2
logKp [5, 23]: −3.97 ± 0.29
stability in buffer solutions spiked with PER [6]: 98.3 ± 7.0%
pKa [7]: 9.77–10.77 (AH/A^−) ^2
